Data reported in publication PMC5351712 (Future Science OA, 2017).
Where two headings read alike, the source gives them in different places.

Key:
[1] = cited from earlier work; for Time of maximum plasma concentration: after oral administration of EPL
[2] = single oral 20 mg EPL maleate, 12 healthy volunteers; cited from earlier work
[3] = design: method as in GC–MS method; settings: single oral 20 mg EPL, 24 healthy adult subjects, mean ± SD; analyte not stated; ref GC–MS method; cited from earlier work
[4] = Stability of EPL and EPLT in human plasma under different storage conditions; assay type: physicochemical; settings: n = 6
Protocol: The bench-top stability was performed for each analyte in plasma was determined by three QC levels in six replicates for 8 h at ambient temperature (24 ± 2°C). […] For determination of freeze–thaw stability of the analytes, the spiked plasma samples were frozen for 24 h at -20°C and thawed unassisted at room temperature. When completely thawed, the samples were refrozen for 12–24 h at -20°C. On repeating the freeze−thaw cycle for 2 days, bioanalysis was done on the third day. For short-term stability, frozen plasma samples (-20°C) were kept at room temperature for 4 h before sample processing. Long-term stability was evaluated after storing the frozen plasma samples at -20°C for the whole duration of the study which was almost 30 days. […]

[5] = design: method as in ref 36 = [36]; 36 Remko M Acidity, lipophilicity, solubility, absorption, and polar surface area of some ACE inhibitors Chem. Pap. 61 133 141 2007; settings: cited from earlier work
[6] = design: method as in ref 7 = [7]; 7 Yoon KH Kim W Park J Kim HJ Determination of enalapril in human plasma by high performance liquid chromatography-electrospray ionization mass spectrometry Bull. Korean Chem. Soc. 25 878 880 2004; settings: after oral intake, mean value; cited from earlier work
[7] = cited from earlier work
[8] = Autosampler stability 24 h at 24°C, QC 3 ng/ml
[9] = Autosampler stability 24 h at 24°C, QC 200 ng/ml
[10] = Autosampler stability 24 h at 24°C, QC 400 ng/ml
[11] = Bench top stability for 8 h, QC 3 ng/ml
[12] = Bench top stability for 8 h, QC 200 ng/ml
[13] = Bench top stability for 8 h, QC 400 ng/ml
[14] = Freeze and thaw stability at -20°C (3 cycles), QC 3 ng/ml
[15] = Freeze and thaw stability at -20°C (3 cycles), QC 200 ng/ml
[16] = Freeze and thaw stability at -20°C (3 cycles), QC 400 ng/ml
[17] = Long-term stability at -20.0°C for 30 days, QC 3 ng/ml
[18] = Long-term stability at -20.0°C for 30 days, QC 200 ng/ml
[19] = Long-term stability at -20.0°C for 30 days, QC 400 ng/ml

| Compound | Time of maximum plasma concentration [1] [h] | Cmax [2] [ng/mL] | Accuracy after storage [4, 8] [%] | Mean concentration after storage [4, 8] [ng/mL] | Accuracy after storage [4, 9] [%] | Mean concentration after storage [4, 9] [ng/mL] | Accuracy after storage [4, 10] [%] | Mean concentration after storage [4, 10] [ng/mL] | Mean concentration after storage [4, 11] [ng/mL] | Accuracy after storage [4, 12] [%] | Mean concentration after storage [4, 12] [ng/mL] | Accuracy after storage [4, 13] [%] | Mean concentration after storage [4, 13] [ng/mL] | Accuracy after storage [4, 14] [%] | Mean concentration after storage [4, 14] [ng/mL] | Accuracy after storage [4, 15] [%] | Mean concentration after storage [4, 15] [ng/mL] | Accuracy after storage [4, 16] [%] | Mean concentration after storage [4, 16] [ng/mL] | Accuracy after storage [4, 17] [%] | also measured |
| --- | --- | --- | --- | --- | --- | --- | --- | --- | --- | --- | --- | --- | --- | --- | --- | --- | --- | --- | --- | --- | --- |
| CCOC(=O)[C@H](CCc1ccccc1)N[C@@H](C)C(=O)N1CCC[C@H]1C(=O)O [EPL, enalapril] | ≤ 1 | 152.1 | 92.6446 | 2.7500 | 100.4675 | 200.9350 | 92.6098 | 384.6733 | 2.7350 | 100.3303 | 200.9567 | 99.2485 | 412.2483 | 91.6339 | 2.7200 | 94.7244 | 189.7283 | 93.5010 | 388.3750 | 90.9601 | Plasma level after 4 h ([1]; after 4 h not detected above this level): ≤ 10 ng/mL; Dose recovered in the urine and feces as EPL or EPLT [1]: approximately 94%; Influence of food on absorption after oral administration [1]: not influenced by the presence of food; Terminal half-life [1]: approximately 2 h; Bioavailability ([1]; healthy subjects, absorbed from the GI tract): 60–70%; T1/2 [3]: 4.2 ± 1.6 h; Accuracy after storage [4, 11]: 92.1392%; Mean concentration after storage [4, 17]: 2.7000 ng/mL; Accuracy after storage [4, 18]: 98.6628%; Mean concentration after storage [4, 18]: 197.6167 ng/mL; Accuracy after storage [4, 19]: 94.6810%; Mean concentration after storage [4, 19]: 393.2767 ng/mL; pK a (strongest acidic) [5]: 3.0; polar surface area [5]: 95.9; Tmax [6]: 0.96 ± 0.36 h |
| C[C@H](N[C@@H](CCc1ccccc1)C(=O)O)C(=O)N1CCC[C@H]1C(=O)O [EPLT, enalaprilat] | 3 to 4 | 88.5 | 98.5516 | 2.6650 | 93.8950 | 187.7900 | 92.5255 | 365.4017 | 2.8833 | 102.2798 | 190.4450 | 98.0713 | 387.3033 | 87.8274 | 2.3750 | 95.3222 | 177.4900 | 88.2284 | 348.4317 | 92.3267 | Half-life ([1]; EPLT after administration of EPL): 30 to 35 h; AUC0–t [7]: 401 ± 89 ng·h/mL; AUC0–∞ [7]: 420 ± 91 ng·h/mL; Cmax [7]: 47.5 ± 12.4 ng/mL; T1/2 [7]: 6.71 ± 2.22 h; Tmax [7]: 4.20 ± 1.06 h; Mean concentration after storage [4, 17]: 2.4967 ng/mL; Accuracy after storage [4, 18]: 105.6740%; Mean concentration after storage [4, 18]: 196.7650 ng/mL; Accuracy after storage [4, 19]: 99.7772%; Mean concentration after storage [4, 19]: 394.0400 ng/mL |
